Inhibition and IC50 data for 19 molecules are collected here from patent US20150353495A1 (PORTOLA PHARMACEUTICALS, INC., priority 2010, published 2015).

For experiment [1], the system named is JAK1/3 signaling to STAT6 in Ramos B cells. The experiment can be described thus: IL4 stimulation of JAK1/3 signaling to STAT6 in Ramos B cells (pSTAT6 Y641, FACS). Format: cell-based. The following applies: Homo sapiens; for inhibition at 0.2 µM: 0.2 uM compound, read-out: IL-4/STAT6 in Ramos Percent Inhibition at 0.2 uM; for inhibition at 1 µM: 1.0 uM compound, read-out: IL-4/STAT6 in Ramos Percent Inhibition at 1.0 uM. In a few lines: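 Ramos cells in 10% FCS medium were pre-treated 1 h with compound, stimulated 15 min with 15 ng IL4, fixed in 2% paraformaldehyde and methanol-permeabilized. Intracellular phospho-STAT6 Y641 was stained with PE-conjugated antibody and quantified by flow cytometry.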

The next experiment concerns the target T1, JAK2 (Homo sapiens, UniProt O60674).
T1 construct: 5 μl of catalytic domain recombinant Kinase enzyme+Tyr peptide substrate (Invitrogen, CA); purchased Invitrogen
Briefly: Z'-LYTE kinase assay JAK2. Format: biochemical. An outline of the steps: (§1)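 Catalytic-domain recombinant kinase was incubated with Tyr6 FRET peptide, ATP and compound (1% DMSO final) for 1 h at room temperature. Protease development followed for 1 h, cleaving only non-phosphorylated peptide. Inhibition of phosphorylation was read as coumarin/fluorescein FRET fluorescence.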

Another experiment has as its target T2, JAK1 (Homo sapiens, UniProt P23458).
T2 construct: 5 μl of catalytic domain recombinant Kinase enzyme+Tyr peptide substrate (Invitrogen, CA); purchased Invitrogen
Briefly: Z'-LYTE kinase assay JAK1. Format: biochemical. An outline of the steps:
as §1

A further experiment addresses T3, JAK3 (Homo sapiens, UniProt P52333).
T3 construct: 5 μl of catalytic domain recombinant Kinase enzyme+Tyr peptide substrate (Invitrogen, CA); purchased Invitrogen
The experiment can be described thus: Z'-LYTE kinase assay JAK3. It counts as biochemical. In a few lines: as §1

The target of a further experiment is T4, TYK2 (Homo sapiens, UniProt P29597).
T4 construct: 5 μl of catalytic domain recombinant Kinase enzyme+Tyr peptide substrate (Invitrogen, CA); purchased Invitrogen
T4 sequence (P29597 897-1176 limits assumed): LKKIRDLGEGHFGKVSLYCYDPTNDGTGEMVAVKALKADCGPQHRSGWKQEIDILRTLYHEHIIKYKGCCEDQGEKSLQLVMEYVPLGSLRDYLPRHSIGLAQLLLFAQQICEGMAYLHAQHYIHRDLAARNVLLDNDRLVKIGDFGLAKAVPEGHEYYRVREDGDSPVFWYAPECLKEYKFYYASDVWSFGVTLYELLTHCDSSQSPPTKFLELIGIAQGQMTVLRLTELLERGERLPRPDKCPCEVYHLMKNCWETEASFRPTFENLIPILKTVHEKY
Briefly: Z'-LYTE kinase assay TYK2. Format: biochemical. In a few lines: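 Recombinant catalytic-domain TYK2 with Tyr6 peptide in Z′-LYTE FRET format, 1% DMSO final, kinase reaction 1 h at room temperature, then protease development 1 h. Fluorescence read at 445/520 nm (excitation 400 nm), percent phosphorylation vs no-inhibitor control, IC50 from 4-parameter logistic fit.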

T2 sequence (P23458 875-1153 limits assumed): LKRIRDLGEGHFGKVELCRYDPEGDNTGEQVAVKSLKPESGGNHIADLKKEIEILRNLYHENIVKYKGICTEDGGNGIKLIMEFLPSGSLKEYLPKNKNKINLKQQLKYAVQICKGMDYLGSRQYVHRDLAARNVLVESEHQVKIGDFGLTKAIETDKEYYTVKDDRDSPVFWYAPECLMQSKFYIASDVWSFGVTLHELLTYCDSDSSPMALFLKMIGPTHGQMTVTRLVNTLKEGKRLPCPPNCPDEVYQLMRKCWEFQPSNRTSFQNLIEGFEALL
T3 sequence (P52333 822-1111 limits assumed): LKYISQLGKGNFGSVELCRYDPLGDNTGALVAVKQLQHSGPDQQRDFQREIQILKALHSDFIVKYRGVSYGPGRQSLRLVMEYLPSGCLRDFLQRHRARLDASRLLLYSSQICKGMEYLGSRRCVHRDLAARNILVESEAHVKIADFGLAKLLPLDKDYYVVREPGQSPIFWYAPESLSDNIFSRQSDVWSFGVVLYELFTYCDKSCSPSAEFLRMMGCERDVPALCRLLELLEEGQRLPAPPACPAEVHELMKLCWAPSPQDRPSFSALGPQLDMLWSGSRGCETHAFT
T1 sequence (O60674 849-1124 limits assumed): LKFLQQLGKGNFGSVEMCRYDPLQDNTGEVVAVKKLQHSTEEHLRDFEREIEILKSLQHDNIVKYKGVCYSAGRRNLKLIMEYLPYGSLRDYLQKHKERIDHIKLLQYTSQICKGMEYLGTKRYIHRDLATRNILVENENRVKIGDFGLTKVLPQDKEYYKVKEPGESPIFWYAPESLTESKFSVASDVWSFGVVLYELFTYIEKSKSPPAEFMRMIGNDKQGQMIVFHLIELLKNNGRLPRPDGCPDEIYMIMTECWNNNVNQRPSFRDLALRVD

Turning to `COc1cccc(Nc2cc(NCc3ccccc3)c(C(N)=O)cn2)c1` [Example 11, 4-(benzylamino)-6-(3-methoxyphenylamino)nicotinamide], the inhibition at 0.2 µM in experiment [1] was 11%. For the same molecule, the inhibition at 1 µM in experiment [1] was found to be 15%. Besides, the IC50 is over 1 µM against JAK2, over 1 µM at JAK1, 0.01 to 0.1 µM at JAK3 and over 1 µM at TYK2.
As to `COc1ccc(Nc2cc(NCc3ccccc3)c(C(N)=O)cn2)cc1` [Example 12, 4-(benzylamino)-6-(4-methoxyphenylamino)nicotinamide], the inhibition at 0.2 µM in experiment [1] came out at 15%. Moreover, the inhibition at 1 µM in experiment [1] is 11%. In addition, the IC50 against JAK2 was 0.1 to 1 µM; against JAK1, over 1 µM; on JAK3, 0.01 to 0.1 µM; at TYK2, over 1 µM.
Consider `NC(=O)c1cnc(Nc2ccc(N3CCOCC3)cc2)cc1Nc1ccc(N2CCOCC2)cc1` [Example 16, 4,6-bis(4-morpholinophenylamino)nicotinamide], for which the inhibition at 0.2 µM in experiment [1] was found to be 17%. In experiment [1], the inhibition at 1 µM is 46%. Moreover, the IC50 is over 1 µM against JAK2, over 1 µM on JAK1, 0.01 to 0.1 µM against JAK3 and over 1 µM at TYK2.
Consider `NC(=O)c1cnc(Nc2cccc(N3CCOCC3)c2)cc1NCc1ccccc1` [Example 31, 4-(benzylamino)-6-(3-morpholinophenylamino)nicotinamide], for which the inhibition at 0.2 µM in experiment [1] was 27%. In experiment [1], the inhibition at 1 µM came to 50%. Moreover, the IC50 on JAK2 was 0.1 to 1 µM; against JAK1 it was 0.1 to 1 µM; against JAK3, 0.001 to 0.01 µM; at TYK2, 0.1 to 1 µM.
Take `NC(=O)c1cnc(Nc2ccc(C(=O)N3CCOCC3)cc2)cc1NCc1ccccc1` [Example 40, 4-(benzylamino)-6-(4-(morpholine-4-carbonyl)phenylamino)nicotinamide]: the inhibition at 0.2 µM in experiment [1] came to 46%. Moreover, the inhibition at 1 µM in experiment [1] worked out at 69%. Besides, the IC50 against JAK2 is 0.1 to 1 µM; against JAK1, 0.1 to 1 µM; against JAK3, 0.001 to 0.01 µM; against TYK2 it was 0.1 to 1 µM.
On to `NC(=O)c1cnc(Nc2ccc(C(=O)N3CCCC3)cc2)cc1NCC1CCCC1` [Example 41, 4-(cyclopentylmethylamino)-6-(4-(pyrrolidine-1-carbonyl)phenylamino)nicotinamide], for which the inhibition at 0.2 µM in experiment [1] turned out to be 31%. Besides, the inhibition at 1 µM in experiment [1] was 59%. Moreover, the concentration for half-maximal inhibition (IC50) was in the range of 0.1 to 1 µM against JAK2, 0.1 to 1 µM against JAK1, 0.01 to 0.1 µM on JAK3 and 0.01 to 0.1 µM against TYK2.
Turning to `NC(=O)c1cnc(Nc2ccc(C(=O)N3CCC3)cc2)cc1NCc1ccccc1` [Example 46, 6-(4-(azetidine-1-carbonyl)phenylamino)-4-(benzylamino)nicotinamide], the inhibition at 0.2 µM in experiment [1] stood at 54%. Moreover, in experiment [1], the inhibition at 1 µM was 80%. Moreover, the IC50 on JAK2 fell in the range of 0.1 to 1 µM; against JAK1, 0.1 to 1 µM; against JAK3, 0.001 to 0.01 µM; against TYK2, 0.1 to 1 µM.
In the case of `NC(=O)c1cnc(Nc2cccc(OCCN3CCCC3)c2)cc1NCc1cccc(F)c1` [Example 58, 4-(3-fluorobenzylamino)-6-(3-(2-(pyrrolidin-1-yl)ethoxy)phenylamino)nicotinamide], the inhibition at 0.2 µM in experiment [1] stood at 33%. Further, the inhibition at 1 µM in experiment [1] was 60%. The IC50 on JAK2 is 0.01 to 0.1 µM; against JAK1, 0.1 to 1 µM; on JAK3 it was 0.001 to 0.01 µM; on TYK2 it was over 1 µM.
For `NC(=O)c1cnc(Nc2cccc(OCCN3CCCC3)c2)cc1NCc1cccnc1` [Example 60, 4-(pyridin-3-ylmethylamino)-6-(3-(2-(pyrrolidin-1-yl)ethoxy)phenylamino)nicotinamide], the inhibition at 0.2 µM in experiment [1] stood at 22%. In addition, the inhibition at 1 µM in experiment [1] worked out at 40%. Further, the IC50 on JAK2 is 0.1 to 1 µM; against JAK1, 0.1 to 1 µM; against JAK3, 0.001 to 0.01 µM; against TYK2 it was over 1 µM.
On to `NC(=O)c1cnc(Nc2ccc(N3CCCC3=O)c(Cl)c2)cc1NCc1cccc(F)c1` [Example 62, 6-(3-chloro-4-(2-oxopyrrolidin-1-yl)phenylamino)-4-(3-fluorobenzylamino)nicotinamide], for which, in experiment [1], the inhibition at 0.2 µM is 29%. Further, in experiment [1], the inhibition at 1 µM was 42%. For the same molecule, the IC50 against JAK2 is 0.1 to 1 µM; on JAK1 it was 0.1 to 1 µM; on JAK3, 0.01 to 0.1 µM; on TYK2, over 1 µM.
In the case of `COc1cc(Nc2cc(NCc3cccc(F)c3)c(C(N)=O)cn2)ccc1N1CCCC1=O` [Example 63, 4-(3-fluorobenzylamino)-6-(3-methoxy-4-(2-oxopyrrolidin-1-yl)phenylamino)nicotinamide], the inhibition at 0.2 µM in experiment [1] amounted to 32%. The inhibition at 1 µM in experiment [1] came to 46%. For the same molecule, the IC50 on JAK2 was 0.1 to 1 µM; on JAK1 it was 0.1 to 1 µM; against JAK3, 0.001 to 0.01 µM; against TYK2 it was over 1 µM.
`NC(=O)c1cnc(Nc2ccc(N3CCCCC3=O)cc2)cc1NCc1cccc(F)c1` [Example 64, 4-(3-fluorobenzylamino)-6-(4-(2-oxopiperidin-1-yl)phenylamino)nicotinamide]: the inhibition at 0.2 µM in experiment [1] amounted to 32%. Further, the inhibition at 1 µM in experiment [1] came out at 50%. Also, the concentration for half-maximal inhibition (IC50) against JAK2 is 0.01 to 0.1 µM; against JAK1 it was 0.1 to 1 µM; at JAK3, 0.001 to 0.01 µM; against TYK2, 0.1 to 1 µM.
As to `NC(=O)c1cnc(Nc2cccc(N3CCOCC3)c2)cc1NCc1cccc(F)c1` [Example 65, 4-(3-fluorobenzylamino)-6-(3-morpholinophenylamino)nicotinamide], the inhibition at 0.2 µM in experiment [1] was 28%. Also, the inhibition at 1 µM in experiment [1] was 49%. The IC50 on JAK2 is 0.01 to 0.1 µM; against JAK1 it was 0.1 to 1 µM; against JAK3 it was 0.001 to 0.01 µM; against TYK2 it was over 1 µM.
In the case of `NC(=O)c1cnc(Nc2ccc(C3CCNCC3)cc2)cc1NCc1cccc(F)c1` [Example 70, 4-(3-fluorobenzylamino)-6-(4-(piperidin-4-yl)phenylamino)nicotinamide], in experiment [1], the inhibition at 0.2 µM was found to be 23%. Also, the inhibition at 1 µM in experiment [1] was determined as 45%. Also, the half-inhibitory concentration (IC50) is 0.01 to 0.1 µM at JAK2, 0.1 to 1 µM on JAK1, 0.001 to 0.01 µM on JAK3 and 0.1 to 1 µM against TYK2.
Regarding `NC(=O)c1cnc(Nc2ccc(N3CCCCC3=O)cc2)cc1NCc1ccccc1F` [Example 71, 4-(2-fluorobenzylamino)-6-(4-(2-oxopiperidin-1-yl)phenylamino)nicotinamide], in experiment [1], the inhibition at 0.2 µM turned out to be 22%. The inhibition at 1 µM in experiment [1] amounted to 37%. The half-inhibitory concentration (IC50) lay in the range of 0.1 to 1 µM against JAK2, 0.1 to 1 µM against JAK1, 0.001 to 0.01 µM against JAK3 and 0.1 to 1 µM against TYK2.
Take `NC(=O)c1cnc(Nc2cccc(OCCN3CCCC3)c2)cc1NCc1ccccc1F` [Example 72, 4-(2-fluorobenzylamino)-6-(3-(2-(pyrrolidin-1-yl)ethoxy)phenylamino)nicotinamide]: the inhibition at 0.2 µM in experiment [1] worked out at 27%. In addition, the inhibition at 1 µM in experiment [1] came out at 54%. Besides, the IC50 lay within 0.1 to 1 µM against JAK2, 0.1 to 1 µM on JAK1, 0.001 to 0.01 µM on JAK3 and 0.1 to 1 µM at TYK2.
Take `NC(=O)c1cnc(Nc2ccc(N3CCOCC3)cc2)cc1NCc1ccccc1F` [Example 73, 4-(2-fluorobenzylamino)-6-(4-morpholinophenylamino)nicotinamide]: the inhibition at 0.2 µM in experiment [1] amounted to 23%. Further, the inhibition at 1 µM in experiment [1] amounted to 53%. Besides, the IC50 at JAK2 is 0.01 to 0.1 µM; at JAK1, 0.1 to 1 µM; against JAK3, 0.001 to 0.01 µM; on TYK2, 0.1 to 1 µM.
Consider `NC(=O)c1cnc(Nc2ccc(N3CCCCC3)cc2)cc1NCc1ccccc1F` [Example 74, 4-(2-fluorobenzylamino)-6-(4-(piperidin-1-yl)phenylamino)nicotinamide], for which, in experiment [1], the inhibition at 0.2 µM turned out to be 21%. Moreover, the inhibition at 1 µM in experiment [1] is 43%. Also, the IC50 on JAK2 is 0.1 to 1 µM; at JAK1, over 1 µM; on JAK3 it was 0.01 to 0.1 µM; at TYK2 it was 0.1 to 1 µM.
With `NC(=O)c1cnc(Nc2ccc(N3CCCCC3)cc2)cc1N[C@H](CO)c1ccccc1` [Example 75, (S)-4-(2-hydroxy-1-phenylethylamino)-6-(4-(piperidin-1-yl)phenylamino)nicotinamide], the inhibition at 0.2 µM in experiment [1] was 11%. Moreover, in experiment [1], the inhibition at 1 µM worked out at 26%. For the same molecule, the IC50 against JAK2 was over 1 µM; at JAK1 it was over 1 µM; at JAK3 it was 0.01 to 0.1 µM; against TYK2, over 1 µM.
